Test results reported in US9284280B2, “Use of form-I crystal of 2-{4-[N-(5,6-diphenylpyrazin-2-yl)-N-isopropylamino]butyloxy}-N-(methylsulfonyl)acetamide” (NIPPON SHINYAKU CO., LTD., priority 2009, dated 2016).

Experiments:
[1] = target: PGI2 (Homo sapiens, UniProt P43119); settings: background statement, see WO 2002/088084; cited from earlier work
[2] = Measurement of particle size distribution of the crystals (HORIBA LA-910) and observation with electron scanning microscope; type: physicochemical; settings: for D10: Cumulative undersize particle diameter at 10% of volumetric ratio / D50: Cumulative undersize particle diameter at 50% of volumetric ratio / D90: Cumulative undersize particle diameter at 90% of volumetric ratio: crystals dispersed with ultrasonic wave in saturated solution of compound A in 0.1 v/v % Polysorbate 80 aqueous solution
Description: After a dispersant (10 mL) was added to the crystals of the invention (20 mg) followed by shaking up, the crystals of the invention were dispersed with ultrasonic wave. The particle size distributions of the crystals of the invention were measured by using HORIBA LA-910. The dispersant used is a filtered saturated solution of compound A in 0.1 v/v % Polysorbate 80 aqueous solution. D10: Cumulative undersize particle diameter at 10% of volumetric ratio [μm] D50: Cumulative undersize particle diameter at 50% of volumetric ratio [μm] D90: Cumulative undersize particle diameter at 90% of volumetric ratio [μm] (2) Observation of the Crystals of the Invention with Electron Scanning Microscope The crystals were observed through an electron scanning microscope (HITACHI HIGH TECHNOLOGIES TM-1000 Miniscope).

PGI2, sequence (P43119 whole entry): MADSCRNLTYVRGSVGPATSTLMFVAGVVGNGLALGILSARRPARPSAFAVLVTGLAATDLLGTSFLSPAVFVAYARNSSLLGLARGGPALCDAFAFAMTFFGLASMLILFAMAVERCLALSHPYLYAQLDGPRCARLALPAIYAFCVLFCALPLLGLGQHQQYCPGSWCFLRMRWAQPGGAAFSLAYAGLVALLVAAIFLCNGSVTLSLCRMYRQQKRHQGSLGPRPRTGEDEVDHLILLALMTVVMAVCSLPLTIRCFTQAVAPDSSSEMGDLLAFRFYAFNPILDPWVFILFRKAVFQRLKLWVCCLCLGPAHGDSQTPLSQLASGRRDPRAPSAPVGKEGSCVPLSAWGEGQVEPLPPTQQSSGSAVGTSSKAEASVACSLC

Row | Structure (SMILES) | PGI2 agonistic effect [1] | particle size compared between crystal forms ([2]; conclusion from particle size distribution and electron scanning micrographs) | D10: Cumulative undersize particle diameter at 10% of volumetric ratio [2] | D50: Cumulative undersize particle diameter at 50% of volumetric ratio [2] | D90: Cumulative undersize particle diameter at 90% of volumetric ratio [2]
1 | CC(C)N(CCCCOCC(=O)NS(C)(=O)=O)c1cnc(-c2ccccc2)c(-c2ccccc2)n1 [Compound A, 2-{4-[N-(5,6-diphenylpyrazin-2-yl)-N-isopropylamino]butyloxy}-N-(methylsulfonyl)acetamide] | excellent PGI2 agonistic effect |  |  |  | 
2 | CC(C)N(CCCCOCC(=O)NS(C)(=O)=O)c1cnc(-c2ccccc2)c(-c2ccccc2)n1 [Form-I Crystal of the Invention, 2-{4-[N-(5,6-diphenylpyrazin-2-yl)-N-isopropylamino]butyloxy}-N-(methylsulfonyl)acetamide] |  | larger than those of Form-II and Form-III crystals | 5.6 μm | 12.8 μm | 25.8 μm
3 | CC(C)N(CCCCOCC(=O)NS(C)(=O)=O)c1cnc(-c2ccccc2)c(-c2ccccc2)n1 [Form-II Crystal of the Invention, 2-{4-[N-(5,6-diphenylpyrazin-2-yl)-N-isopropylamino]butyloxy}-N-(methylsulfonyl)acetamide] |  |  | 5.2 μm | 11.3 μm | 22.0 μm
4 | CC(C)N(CCCCOCC(=O)NS(C)(=O)=O)c1cnc(-c2ccccc2)c(-c2ccccc2)n1 [Form-III Crystal of the Invention, 2-{4-[N-(5,6-diphenylpyrazin-2-yl)-N-isopropylamino]butyloxy}-N-(methylsulfonyl)acetamide] |  |  | 4.3 μm | 8.0 μm | 14.4 μm
